Source: the Kinase Knowledgebase extract (Sharma et al. 2016)

Assays:
EGFR (murine) = EGFR (murine) (UniProt P00533); conditions: nih3t3/c7
EGFR = EGFR (UniProt P00533)
Sequence of EGFR (P00533 whole entry, looked up): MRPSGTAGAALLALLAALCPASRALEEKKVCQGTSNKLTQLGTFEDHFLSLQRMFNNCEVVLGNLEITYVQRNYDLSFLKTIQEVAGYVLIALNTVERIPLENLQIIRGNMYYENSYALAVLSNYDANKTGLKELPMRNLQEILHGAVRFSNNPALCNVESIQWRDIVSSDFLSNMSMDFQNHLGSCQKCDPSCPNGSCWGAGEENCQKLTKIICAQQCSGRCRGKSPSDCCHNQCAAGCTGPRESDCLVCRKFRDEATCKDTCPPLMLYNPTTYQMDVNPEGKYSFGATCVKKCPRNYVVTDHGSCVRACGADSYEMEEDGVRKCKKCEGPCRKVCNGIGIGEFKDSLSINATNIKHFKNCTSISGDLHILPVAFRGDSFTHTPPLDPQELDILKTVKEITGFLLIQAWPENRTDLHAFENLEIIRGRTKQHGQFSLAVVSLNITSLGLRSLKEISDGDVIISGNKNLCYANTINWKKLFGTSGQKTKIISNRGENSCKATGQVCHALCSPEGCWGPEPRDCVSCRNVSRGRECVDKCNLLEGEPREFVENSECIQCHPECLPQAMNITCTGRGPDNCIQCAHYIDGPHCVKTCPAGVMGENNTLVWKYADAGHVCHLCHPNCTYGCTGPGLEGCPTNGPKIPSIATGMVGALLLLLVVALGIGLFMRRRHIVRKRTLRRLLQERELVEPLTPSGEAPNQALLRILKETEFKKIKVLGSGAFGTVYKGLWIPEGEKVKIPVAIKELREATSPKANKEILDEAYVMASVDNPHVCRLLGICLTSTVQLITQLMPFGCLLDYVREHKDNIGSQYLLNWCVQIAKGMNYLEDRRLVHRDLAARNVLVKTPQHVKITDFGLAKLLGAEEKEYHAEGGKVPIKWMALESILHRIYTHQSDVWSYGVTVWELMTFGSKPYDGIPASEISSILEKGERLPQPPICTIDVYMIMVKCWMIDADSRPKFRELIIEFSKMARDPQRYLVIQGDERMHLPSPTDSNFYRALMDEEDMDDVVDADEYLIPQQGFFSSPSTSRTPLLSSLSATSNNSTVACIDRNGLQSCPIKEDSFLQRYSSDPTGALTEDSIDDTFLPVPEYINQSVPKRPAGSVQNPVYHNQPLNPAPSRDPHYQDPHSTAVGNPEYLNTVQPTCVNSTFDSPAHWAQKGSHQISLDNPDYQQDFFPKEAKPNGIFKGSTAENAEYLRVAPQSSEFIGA

Sequence of EGFR (murine) (P00533 whole entry, looked up): as above

Row | IC50 (EGFR (murine)) [µM] | IC50 (EGFR) [µM] | SMILES
1 | > 100 | > 100 | COc1ccc2c(c1)C(CC(=O)O)C/C2=C1/C(=O)Nc2ccccc21 (centres undefined)
2 |  | > 25 | COc1cc2c(cc1OC)/C(=C1\C(=O)Nc3ccccc31)CC2
3 |  | > 100 | O=C1Nc2ccccc2/C1=C1\CCc2cc(N3CCCCC3)ccc21
4 |  | > 100 | Cc1cccc2c1CC/C2=C1/C(=O)Nc2ccccc21
5 |  | > 100 | O=C1Nc2ccccc2/C1=C1\CCc2cc(Br)ccc21
6 |  | > 100 | Nc1ccc2c(c1)CC/C2=C1/C(=O)Nc2ccccc21
7 |  | > 100 | O=C1Nc2ccccc2/C1=C1\CCc2cc(Cl)ccc21
8 |  | > 100 | COc1ccc2c(c1)/C(=C1\C(=O)Nc3ccccc31)CC2
9 |  | > 100 | COc1ccc2c(c1)CC/C2=C1/C(=O)Nc2ccccc21
10 |  | > 100 | CN(C)c1ccc2c(c1)CC/C2=C1/C(=O)Nc2ccccc21
11 |  | > 100 | CC1C/C(=C2/C(=O)Nc3ccccc32)c2ccccc21 (centres undefined)
12 | > 100 | > 100 | O=C1Nc2ccccc2/C1=C1\CCc2ccccc21
